How the values were obtained:
NHK [1] = test: Co-immunoprecipitation with β2-AR and TLR2 antibody in NHK; type: cell-based, human; settings: MALP2 100 ng/ml
From the text: (§1) Twenty five μg of total protein was resolved, transferred, and probed with antibodies for β2-AR (Abcam), phospho beta-adrenergic receptor activated kinase-1 (BARK-1/GRK2 referred to as BARK-1 from here after; GeneTex), TLR2 (Imgenex) Myeloid differentiation factor 88 (MyD88; Imgenex), phospho interleukin receptor activated kinase-1 (pIRAK-1 and IRAK-1; Cell Signaling), phospho ERK1/2 (Santacruz), phenylethanolamine N-methyltransferase (PNMT) and tyrosine hydroxylase (TH), and stripped membranes were further incubated with respective total antibodies or GAPDH or α-tubulin. TLR2 (Imgenex) and β2-AR (Santacruz) antibodies were used for co-immunoprecipation assays and antibody protein complexes were further probed with above antibodies β1). Protein A/G-sepharose beads and isotype matched IgG antibodies were used as negative controls in all the co-immunoprecipitation experiments along with the antibody used for the pull down as a positive control. Band intensities were determined as described previously and normalized to GAPDH/α-tubulin or total protein (BARK-1) and densitometric ratios are presented as fold change vs control β1). For some experiments, cell lysates from three independent experiments were pooled to get enough protein for the assay and repeated three times for densitometry purposes.

BM-MSC [2] = test: HPLC detection of catecholamines in BM-MSC supernatants; type: cell-based, human; settings: MALP2 100 ng/ml
Experimental: (§2) Cell culture samples from at least from three independent experiments were acidified with perchloric acid to 0.2N prior to storage at −80° C. for future analysis. The supernatant were applied to conditioned MonoSpin® PBA solid phase extraction spin columns (GL Sciences) and purifications were performed according to the manufacturer's specifications. Catecholamines were eluted in 200 μL of 2% acetic acid.
(§3) HPLC separation was performed using a Synergi™ 4 um Fusion-reverse phase 250×4.6 mm column (Phenomenex) and a HP series 1050 pump and auto injector system. The mobile phase for chromatographic separation was a modification of that used by Leis et al (33). Detection of catecholamine compounds was performed using a LC-4C amperometric detector (Bioanalytical Systems) using potential of […]. Catecholamine levels are presented as pg/μg cell protein.

BM-MSC [3] = test: Real time PCR (TLR2, ADRB2 mRNA) in BM-MSC; type: cell-based, human
Experimental: (§4) Epinephrine (EPI: Sigma) and TLR2 ligands (macrophage activating lipoprotein-2: MALP2—that specifically activates TLR2/6 heterodimerization, and heat killed Staphylococcus aureus: HKSA; Invivogen) treatments were carried out at the indicated times and concentrations. All the cells were maintained in 0.5% fetal bovine serum containing culture medium overnight prior to treatment. Cells were exposed to different treatments in fresh serum-free medium. In some experiments, cells were pretreated for 30 minutes with Timolol (10 μM; Sigma) or ICI-118, 551 (ICI; 10 μM; Tocris) followed by EPI and MALP2 treatment as described previously (11-13, 30).
mRNA expression was determined by real-time PCR (RT-PCR), using sequence-specific primers and probes. Total RNA was extracted from the cells using Qiagen RNeasy mini kit. The first strand of cDNA was synthesized using 1 μg of total RNA. cDNA (50 ng) was amplified using primer probe sets for TLR2, beta-2-adrenergic receptor (ADRB2) and three housekeeping genes: beta-2-microglobulin, GAPDH, and RPLPO using standard cycling parameters. Data were calculated using the 2-ΔΔCt method and are presented as fold change (ratio of transcripts of gene normalized to the three house-keeping genes) (11-13, 31).

NHK [4] = test: HPLC detection of catecholamines in NHK supernatants; type: cell-based, human
Experimental: as §2, §3

BM-MSC [5] = test: Western blots in BM-MSC; type: cell-based, human
Experimental: as §4, §1

BM-MSC [6] = test: Single-cell migration of BM-MSC; type: cell-based, human; settings: EPI 50 nM, MALP2 100 ng/ml, Timolol 10 μM, 30 min pretreatment
From the text: (§5) Human bone marrow aspirations obtained from four healthy donors were purchased from Lonza. MSC were harvested from bone marrow (BM) following established protocols (26, 27), and used between passages 3-5. Characterization of MSC included differentiation into osteogenic and adipogenic lineage cells, as described previously (27). The stem cell research oversight (SCRO) review board at the University of California, Davis approved all the human cell protocols.
as §4

NHK [7] = test: Western blots (PNMT, TH) in NHK; type: cell-based, human
Experimental: as §4
Twenty five μg of total protein was resolved, transferred, and probed with antibodies for β2-AR (Abcam), phospho beta-adrenergic receptor activated kinase-1 (BARK-1/GRK2 referred to as BARK-1 from here after; GeneTex), TLR2 (Imgenex) Myeloid differentiation factor 88 (MyD88; Imgenex), phospho interleukin receptor activated kinase-1 (pIRAK-1 and IRAK-1; Cell Signaling), phospho ERK1/2 (Santacruz), phenylethanolamine N-methyltransferase (PNMT) and tyrosine hydroxylase (TH), and stripped membranes were further incubated with respective total antibodies or GAPDH or α-tubulin. TLR2 (Imgenex) and β2-AR (Santacruz) antibodies were used for co-immunoprecipation assays and antibody protein complexes were further probed with above antibodies β1). […]

NHK [8] = test: Secreted IL-6 ELISA in NHK; type: cell-based, human; settings: for increase in IL-6 secretion as compared to untreated NHK: four hours, EPI 50 nM, MALP2 100 ng/ml, HKSA 10^4 cells/ml
From the text: NHK were isolated from human neonatal foreskins, cultured and maintained, as reported earlier (28,29). NHKs isolated from at least three different foreskins and between passages 3 and 7 were used in all the experiments. The Institutional Review Board at UC Davis approved the protocol for obtaining discarded neonatal foreskins.
as §4
(§6) Levels of interleukin-6 (IL-6) were measured with an ELISA kit (R&D systems). IL-6 levels were normalized to total cell protein and expressed as pg/μg protein β1).

BM-MSC [9] = test: Secreted IL-6 ELISA in BM-MSC; type: cell-based, human; settings: for increase in IL-6 secretion as compared to untreated control cells: four hours, EPI 50 nM, MALP2 100 ng/ml, HKSA 10^4 cells/ml
From the text: as §5, §4, §6

RAW 264.7 macrophages = settings: cited from earlier work
NHK [10] = test: Scratch wound assay in confluent NHK cultures; type: cell-based, human; settings: 30 minutes pretreatment; for IL-6 secretion in wounded NHK confluent sheets: antagonists 10 μM; for effect on EPI+MALP2 or EPI+HKSA delayed NHK migration: scratch-wounded NHK, antagonist 10 μM
Experimental: as §6
The rate of healing scratch wounds made in confluent NHK cultures was determined as reported previously (30, 32). Briefly, cells were pretreated with 10 μg/ml mitomycin (EMD Millipore) for 1 hr to inhibit cell proliferation that could skew the data analysis. Wounded cultures were incubated in growth medium (control) containing EPI, TLR2 ligands, and/or Timolol or ICI. Velocity Image analysis software (Perkin Elmer) was used to measure the scratch wound area, which is expressed as percent closed wound.

Bone marrow MSCs = test: BM-MSC migration tracked for 12 hours after antagonist treatment (FIG. 11); type: cell-based, human; settings: treated 1 hour, tracked 12 hours
Experimental: FIG. 11 illustrates that results are not limited to one class of beta adrenergic antagonist. Bone marrow MSCs from two different individuals were cultured and treated with either a non-specific beta adrenergic receptor antagonist (timolol) or a beta 2 adrenergic receptor specific antagonist (ICI 118,551) at stated concentrations for 1 hour, then cell migration was tracked for 12 hours. For each experiment 80-90 cells were tracked. Means+/−SEM shown, *=p<0.005.

C57BL/6J mice = test: Full-thickness cutaneous wounds in EPI stressed mice (osmotic pumps); type: in vivo, mouse; settings: for wound closure: EPI 7 mg/kg body weight/day, ICI 0.7 mg/kg body weight/day by osmotic pump; for TLR2 expression in wound tissue: day 7 after injury; for IL-6 levels in the wound tissue / phosphorylation of ERK1/2 in wounds: mouse, in vivo
Experimental: C57BL/6J (male; 8-10 week age; Jax Mice) with ad libitum access to food and water were anesthetized using isoflurane and one 6 mm circular diameter full-thickness wound was placed on the dorsal shaved skin β1). Micro-osmotic pumps (0.25 μl/hour; Alzet micro-osmotic pump Model: 1002, Alzet) were implanted on the right flank of the mice to deliver 7 mg/kg body weight/day EPI and 0.7 mg/kg body weight/day of ICI) as we have previously reported (11-13,30). At 7 or 11 days after injury, the mice were euthanized, the wound tissue was harvested by 8 mm punch excision and stored frozen or formalin—fixed until further analysis. Animal protocols were approved by the IACUC at UC Davis.

[11] = cited from earlier work
[12] = tested on: monocytic cell line and rat macrophages; settings: supraphysiologic levels of EPI (5000-10,000 ng/ml); cited from earlier work
murine macrophages = settings: epinephrine pretreatment; cited from earlier work
[13] = BM-MSC, Timolol 10 μM, 30 min pretreatment

Compound: MALP2
- β2-AR expression and BARK-1 phosphorylation in TLR2 immunoprecipitates (NHK [1]): noticeable increase
- EPI and norepinephrine levels in cell culture supernatants (BM-MSC [2]): increased
- β2-adrenergic receptor mRNA expression (BM-MSC [3]; MALP2 100 ng/ml): significantly up-regulated
- catecholamine response of NHKs relative to BM-MSC (NHK [4]; MALP2 treated): 2-4 fold
- EPI and norepinephrine levels in cell culture supernatants (NHK [4]; NHK, MALP2 100 ng/ml): increased
- BARK-1 phosphorylation (BM-MSC [5]): significantly increased
- PNMT and TH enzymes (BM-MSC [5]): induced
- β2-adrenergic receptor protein expression (BM-MSC [5]; MALP2 100 ng/ml): significantly up-regulated
- inhibition in migratory speed (BM-MSC [6]): 15%
- PNMT and TH enzymes (NHK [7]): induced
- increase in IL-6 secretion as compared to untreated NHK (NHK [8]): 8.8 fold
- increase in IL-6 secretion as compared to untreated control cells (BM-MSC [9]; BM-MSC): 2.6 fold

Compound: Polymyxin B
- effect of pretreatment on EPI or MALP2 induced IL-6 levels (BM-MSC [9]; BM-MSC, endotoxin control): did not affect

Compound: OCc1cc(C(O)CNCCCCCCOCCCCc2ccccc2)ccc1O (stereo not drawn) [salmeterol]
- IL-1β and IL-6 protein production (RAW 264.7 macrophages): significant increase
- increase in IL-1β transcripts (RAW 264.7 macrophages): 80 fold
- increase in IL-6 transcripts (RAW 264.7 macrophages): 8 fold

Compound: CC(C)(C)NC[C@H](O)COc1nsnc1N1CCOCC1 [Timolol]
- IL-6 secretion in wounded NHK confluent sheets (NHK [10]): reverses
- effect on EPI+MALP2 or EPI+HKSA delayed NHK migration (NHK [10]): reverses
- migratory speed of bone marrow derived MSC (Bone marrow MSCs): increase migratory speed
- IL-6 release by human keratinocytes under β adrenergic receptor antagonist (NHK [8]): suppression
- decrease of EPI+HKSA induced IL-6 secretion by pretreatment (BM-MSC [9]; [13]): 1.5 fold
- decrease of EPI+MALP2 induced IL-6 secretion by pretreatment (BM-MSC [9]; [13]): 33 fold
- IL-6 levels (BM-MSC [9]; BM-MSC, mean±SD, antagonist 10 μM, 30 min pretreatment): 4.8±2.7 pg/μg protein

Compound: Cc1ccc(OCC(O)C(C)NC(C)C)c2c1CCC2 (stereo not drawn) [ICI 118,551]
- wound closure (C57BL/6J mice): reversed
- TLR2 expression in wound tissue (C57BL/6J mice): reversed
- IL-6 levels in the wound tissue (C57BL/6J mice): decreased
- phosphorylation of ERK1/2 in wounds (C57BL/6J mice): increases
- IL-6 secretion in wounded NHK confluent sheets (NHK [10]): reverses
- effect on EPI+MALP2 or EPI+HKSA delayed NHK migration (NHK [10]): reverses
- migratory speed of bone marrow derived MSC (Bone marrow MSCs): increase migratory speed
- IL-6 release by human keratinocytes under β adrenergic receptor antagonist (NHK [8]): suppression

Compound: CC(C)(C)NCC(O)COc1cccc2c1CC(O)C(O)C2 (stereo not drawn) [Nadolol]
- lipid solubility [11]: low

Compound: CNC[C@H](O)c1ccc(O)c(O)c1 [EPI, Epinephrine]
- TLR2 mRNA expression (BM-MSC [3]; EPI 50 nM): significantly increased
- wound closure (C57BL/6J mice): significantly decreased
- TLR2 expression in wound tissue (C57BL/6J mice): increased
- IL-6 levels in the wound tissue (C57BL/6J mice): significantly elevated
- phosphorylation of ERK1/2 in wounds (C57BL/6J mice): Decreased
- BARK-1 phosphorylation (BM-MSC [5]): increased
- MyD88 protein expression (BM-MSC [5]; EPI 50 nM): significantly elevated
- TLR2 protein levels (BM-MSC [5]; EPI 50 nM): significantly increased
- TLR4 mRNA expression [12]: decreases
- TNF-α production with LPS stimulation (murine macrophages): significantly increases
- increase in IL-6 secretion as compared to untreated NHK (NHK [8]): 16 fold
- increase in IL-6 secretion as compared to untreated control cells (BM-MSC [9]; BM-MSC): 3.8 fold
- EPI concentration of maximal induction of IL-6 secretion (BM-MSC [9]; EPI 50-1000 nM, 4 hr and 24 hr): 50 nM

Source: patent publication US20160175485A1, “COMBINATION THERAPY TO PROMOTE WOUND HEALING” (THE REGENTS OF THE UNIVERSITY OF CALIFORNIA, priority 2013, published 2016)
